# Reference: US7981903B2, “2-[2-{phenylamino}-1H-pyrrolo[2,3-D]pyrimidin-4-yl)amino] benzamide derivatives as IGF-1R inhibitors for the treatment of cancer” (GlaxoSmithKline LLC, priority 2007, dated 2011)
# Values joined by “and” are separate entries in the source; they are usually repeats but may differ in a detail not shown here. Identical values can stand only once.
# How the values were obtained:
# [1] = tested on: NCI-H929; test: Inhibition of cell proliferation (CellTiter-Glo or InCell analyzer), NCI-H929; type: cell-based; settings: Homo sapiens, 72 h / 3 days, values given as IC50 category
# Method: (§1) Cell proliferation was measured by either CellTiter-Glo (measures cellular ATP level as a surrogate for total cell number) or by InCell analyzer (counts number of nuclei as a measure of cell number).
# (§2) For CellTiter-Glo assay, exponentially growing cell lines of different tumor origins, cultured in appropriate media containing 10% fetal bovine serum at 37° C. in a 5% CO2 incubator, were plated at low density (less than 2000cells/well) in 96-well plates. Twenty four hours post-plating, cells were treated with different concentrations of test compounds ranging from 30 uM to 1.5 nM. Several wells were left untreated as a control. Seventy two hours post-treatment, cell numbers were determined using 50-100 ul per well of CellTiter-Glo (Promega #G7573). Plates were incubated at 37° C. for 30 minutes and the chemiluminescent signal was read on the Victor V or Envison 2100 reader.
# (§3) For InCell Analyser assay, various cell lines of different tumor origins were grown to 70-80% confluency in appropriate culture media containing 10% fetal bovine serum at 37° C. in a 5% CO2 incubator. On day −1, cells were seeded at 2 densities in 384-well plates and incubated at 37° C. overnight. Stock compound plates were prepared in advance which contained dimethyl sulfoxide (DMSO) alone and a 9-point half-log decreasing dose range of the compound in DMSO. The compound plates were stored at −80° C. and each plate was only thawed once and used. On day 0, the main assay plates received compound or DMSO via a sonic delivery system (ECHO). The highest final concentration of compound of the dose range in the culture plates was 10 uM. These plates were cultured at 37° C. for 3 days. […] On day 3, the compound treated plates were stained and fixed to measure proliferation, apoptosis, and mitotic index using an InCelL1000 analyser. A nuclear stain was used to identify cells in the wells. By counting the number of nuclei, the proliferation index of compound treated groups were calculated as a percentage relative to the DMSO control, which was set to 100%. The IC50 values were calculated using model 205 in ExcelFit.
# (§4) IC50 (nM) values for compounds of select examples were categorized by relative inhibition of cell proliferation.
# [2] = biological target: T1, NIH-3T3 cells overexpressing human IR (Homo sapiens, UniProt P06213); test: IR cellular autophosphorylation (DELFIA); type: cell-based; settings: 2 h compound, insulin 3 ug/ml for 15 minutes, IC50 category
# T1 construct: expressed in transfected cells; host or cells: NIH-3T3 (mouse fibroblasts)
# T1 sequence (P06213 28-1382): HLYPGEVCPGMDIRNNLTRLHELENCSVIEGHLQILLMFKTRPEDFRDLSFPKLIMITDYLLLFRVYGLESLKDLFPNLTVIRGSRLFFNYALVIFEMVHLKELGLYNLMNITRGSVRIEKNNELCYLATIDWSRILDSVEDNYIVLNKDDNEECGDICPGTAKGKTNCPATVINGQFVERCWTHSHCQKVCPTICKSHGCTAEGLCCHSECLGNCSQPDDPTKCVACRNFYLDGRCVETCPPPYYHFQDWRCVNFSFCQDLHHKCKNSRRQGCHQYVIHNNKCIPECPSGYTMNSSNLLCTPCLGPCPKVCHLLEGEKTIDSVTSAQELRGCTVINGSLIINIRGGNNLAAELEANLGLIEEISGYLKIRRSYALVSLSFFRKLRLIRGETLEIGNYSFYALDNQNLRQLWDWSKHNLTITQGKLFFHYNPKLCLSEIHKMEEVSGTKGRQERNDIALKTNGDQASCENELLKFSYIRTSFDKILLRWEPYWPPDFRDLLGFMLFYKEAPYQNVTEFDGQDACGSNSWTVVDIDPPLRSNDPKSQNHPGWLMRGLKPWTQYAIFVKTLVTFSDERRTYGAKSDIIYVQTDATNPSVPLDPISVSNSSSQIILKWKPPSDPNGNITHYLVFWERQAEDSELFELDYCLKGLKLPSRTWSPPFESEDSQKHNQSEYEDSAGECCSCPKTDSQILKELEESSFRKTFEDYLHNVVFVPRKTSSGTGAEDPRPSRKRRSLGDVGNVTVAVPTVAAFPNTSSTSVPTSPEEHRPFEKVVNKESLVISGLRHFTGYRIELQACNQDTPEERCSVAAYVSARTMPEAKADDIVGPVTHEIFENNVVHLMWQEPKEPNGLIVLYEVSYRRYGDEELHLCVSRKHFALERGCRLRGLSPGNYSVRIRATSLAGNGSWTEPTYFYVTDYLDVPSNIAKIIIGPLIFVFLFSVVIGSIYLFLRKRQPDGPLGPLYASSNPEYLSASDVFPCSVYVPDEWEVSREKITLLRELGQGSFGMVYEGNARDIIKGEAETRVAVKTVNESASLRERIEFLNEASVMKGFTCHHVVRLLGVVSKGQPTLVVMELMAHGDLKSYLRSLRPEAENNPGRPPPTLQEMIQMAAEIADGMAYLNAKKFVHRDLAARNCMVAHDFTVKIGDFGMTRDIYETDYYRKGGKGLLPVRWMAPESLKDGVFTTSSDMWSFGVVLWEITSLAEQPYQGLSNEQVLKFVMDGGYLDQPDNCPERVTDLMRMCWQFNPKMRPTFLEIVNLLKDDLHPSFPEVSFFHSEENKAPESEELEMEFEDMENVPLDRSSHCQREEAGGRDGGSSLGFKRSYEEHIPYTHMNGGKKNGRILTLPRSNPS
# In short: (§5)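 Receptor autophosphorylation measured by DELFIA, capturing IGF-1R or IRβ and detecting with europium anti-pTyr, reported as percent of IGF-1- or insulin-stimulated signal. Compounds (30 uM to 1.5 nM) added 2 h before ligand, then 15 min stimulation (IGF-1 30 ng/ml or insulin 3 ug/ml).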
# [3] = biological target: T2, human IR (hIR) (Homo sapiens, UniProt P06213); test: TR-FRET kinase assay of purified hIR; type: biochemical; settings: activated hIR 0.5 nM, 10 μM ATP, values given as pIC50 category
# T2 construct: containing amino acid residues 979-1382 of human IR; made in house; host or cells: Sf9 cells (baculovirus), same process as hIGF1R
# T2 sequence (P06213 979-1382): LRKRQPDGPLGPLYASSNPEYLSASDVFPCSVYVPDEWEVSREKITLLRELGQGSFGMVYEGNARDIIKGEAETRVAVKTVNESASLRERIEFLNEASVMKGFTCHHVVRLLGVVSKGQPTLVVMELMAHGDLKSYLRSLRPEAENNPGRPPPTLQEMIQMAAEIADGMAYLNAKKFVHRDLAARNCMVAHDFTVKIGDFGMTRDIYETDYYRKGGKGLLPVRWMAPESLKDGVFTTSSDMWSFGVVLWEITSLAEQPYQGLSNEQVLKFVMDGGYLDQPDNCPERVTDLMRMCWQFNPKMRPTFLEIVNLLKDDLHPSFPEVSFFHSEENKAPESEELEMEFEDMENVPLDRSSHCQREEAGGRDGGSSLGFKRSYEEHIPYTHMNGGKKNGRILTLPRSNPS
# [4] = tested on: Colo205; test: Inhibition of cell proliferation (CellTiter-Glo or InCell analyzer), Colo205; type: cell-based; settings: Homo sapiens, COLO 205, 72 h / 3 days, values given as IC50 category
# Method: as §1, §2, §3, §4
# [5] = biological target: T3, human IGF1R (hIGF1R) (Homo sapiens, UniProt P08069); test: TR-FRET kinase assay of purified hIGF1R; type: biochemical; settings: activated hIGF1R 0.5 nM, 10 μM ATP, values given as pIC50 category, read-out: IGF-1R pIC50 (converted)
# T3 construct: containing amino acid residues 957-1367 of human IGF1R; made in house; host or cells: Sf9 cells (baculovirus)
# T3 sequence (P08069 957-1367): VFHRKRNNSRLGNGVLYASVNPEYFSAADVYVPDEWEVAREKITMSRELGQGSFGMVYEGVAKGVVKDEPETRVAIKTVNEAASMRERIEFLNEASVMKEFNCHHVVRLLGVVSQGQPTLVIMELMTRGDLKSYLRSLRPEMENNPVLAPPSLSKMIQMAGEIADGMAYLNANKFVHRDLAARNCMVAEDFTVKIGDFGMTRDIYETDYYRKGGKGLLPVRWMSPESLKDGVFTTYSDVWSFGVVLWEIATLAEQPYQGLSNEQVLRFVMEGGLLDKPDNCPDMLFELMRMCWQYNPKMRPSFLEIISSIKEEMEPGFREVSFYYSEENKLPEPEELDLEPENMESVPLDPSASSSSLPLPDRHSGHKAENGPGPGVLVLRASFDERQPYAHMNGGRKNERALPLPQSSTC
# [6] = biological target: T4, NIH-3T3 cells overexpressing human IGF-1R (Homo sapiens, UniProt P08069); test: IGF-1R cellular autophosphorylation (DELFIA); type: cell-based
# T4 construct: expressed in transfected cells; host or cells: NIH-3T3 (mouse fibroblasts)
# T4 sequence (P08069 31-1367): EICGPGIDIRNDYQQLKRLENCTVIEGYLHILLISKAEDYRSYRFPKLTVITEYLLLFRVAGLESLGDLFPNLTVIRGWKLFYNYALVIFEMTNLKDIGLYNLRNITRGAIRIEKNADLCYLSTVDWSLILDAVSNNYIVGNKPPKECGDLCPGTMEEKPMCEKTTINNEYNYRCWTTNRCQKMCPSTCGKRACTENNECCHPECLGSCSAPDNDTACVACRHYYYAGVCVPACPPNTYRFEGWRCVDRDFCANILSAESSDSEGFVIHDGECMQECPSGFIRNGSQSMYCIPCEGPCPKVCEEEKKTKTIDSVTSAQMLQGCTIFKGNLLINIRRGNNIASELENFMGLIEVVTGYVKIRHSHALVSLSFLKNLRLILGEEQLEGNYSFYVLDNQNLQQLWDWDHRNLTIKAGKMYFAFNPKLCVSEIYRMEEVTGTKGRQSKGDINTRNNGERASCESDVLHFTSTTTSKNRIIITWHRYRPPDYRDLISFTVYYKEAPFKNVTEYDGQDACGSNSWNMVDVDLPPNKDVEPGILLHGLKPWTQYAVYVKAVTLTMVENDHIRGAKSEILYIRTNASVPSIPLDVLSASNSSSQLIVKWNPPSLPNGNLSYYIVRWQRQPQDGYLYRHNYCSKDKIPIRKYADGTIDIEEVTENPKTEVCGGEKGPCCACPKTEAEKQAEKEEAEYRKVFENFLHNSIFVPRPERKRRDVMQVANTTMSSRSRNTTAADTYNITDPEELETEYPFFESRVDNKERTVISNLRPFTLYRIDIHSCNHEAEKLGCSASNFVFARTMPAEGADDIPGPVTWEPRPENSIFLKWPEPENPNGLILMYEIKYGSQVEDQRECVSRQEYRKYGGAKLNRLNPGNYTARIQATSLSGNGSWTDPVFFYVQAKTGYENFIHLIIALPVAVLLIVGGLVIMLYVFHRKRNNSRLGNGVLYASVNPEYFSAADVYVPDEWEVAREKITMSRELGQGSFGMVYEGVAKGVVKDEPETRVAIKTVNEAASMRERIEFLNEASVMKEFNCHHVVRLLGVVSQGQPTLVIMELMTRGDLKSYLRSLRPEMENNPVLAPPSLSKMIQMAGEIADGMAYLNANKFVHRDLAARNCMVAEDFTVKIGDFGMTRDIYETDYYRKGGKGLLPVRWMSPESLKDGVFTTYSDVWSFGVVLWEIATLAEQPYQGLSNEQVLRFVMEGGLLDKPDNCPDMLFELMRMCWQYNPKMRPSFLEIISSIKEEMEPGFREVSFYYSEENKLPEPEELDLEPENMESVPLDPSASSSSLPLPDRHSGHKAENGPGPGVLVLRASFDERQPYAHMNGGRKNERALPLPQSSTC
# In short: as §5
# [7] = biological target: ALK (Homo sapiens, UniProt Q9UM73); test: ALK enzyme assay (HTRF); type: biochemical; settings: 0.25 nM ALK, 15.0 μM ATP, values given as pIC50 category
# Chain of ALK (Q9UM73 19-1620): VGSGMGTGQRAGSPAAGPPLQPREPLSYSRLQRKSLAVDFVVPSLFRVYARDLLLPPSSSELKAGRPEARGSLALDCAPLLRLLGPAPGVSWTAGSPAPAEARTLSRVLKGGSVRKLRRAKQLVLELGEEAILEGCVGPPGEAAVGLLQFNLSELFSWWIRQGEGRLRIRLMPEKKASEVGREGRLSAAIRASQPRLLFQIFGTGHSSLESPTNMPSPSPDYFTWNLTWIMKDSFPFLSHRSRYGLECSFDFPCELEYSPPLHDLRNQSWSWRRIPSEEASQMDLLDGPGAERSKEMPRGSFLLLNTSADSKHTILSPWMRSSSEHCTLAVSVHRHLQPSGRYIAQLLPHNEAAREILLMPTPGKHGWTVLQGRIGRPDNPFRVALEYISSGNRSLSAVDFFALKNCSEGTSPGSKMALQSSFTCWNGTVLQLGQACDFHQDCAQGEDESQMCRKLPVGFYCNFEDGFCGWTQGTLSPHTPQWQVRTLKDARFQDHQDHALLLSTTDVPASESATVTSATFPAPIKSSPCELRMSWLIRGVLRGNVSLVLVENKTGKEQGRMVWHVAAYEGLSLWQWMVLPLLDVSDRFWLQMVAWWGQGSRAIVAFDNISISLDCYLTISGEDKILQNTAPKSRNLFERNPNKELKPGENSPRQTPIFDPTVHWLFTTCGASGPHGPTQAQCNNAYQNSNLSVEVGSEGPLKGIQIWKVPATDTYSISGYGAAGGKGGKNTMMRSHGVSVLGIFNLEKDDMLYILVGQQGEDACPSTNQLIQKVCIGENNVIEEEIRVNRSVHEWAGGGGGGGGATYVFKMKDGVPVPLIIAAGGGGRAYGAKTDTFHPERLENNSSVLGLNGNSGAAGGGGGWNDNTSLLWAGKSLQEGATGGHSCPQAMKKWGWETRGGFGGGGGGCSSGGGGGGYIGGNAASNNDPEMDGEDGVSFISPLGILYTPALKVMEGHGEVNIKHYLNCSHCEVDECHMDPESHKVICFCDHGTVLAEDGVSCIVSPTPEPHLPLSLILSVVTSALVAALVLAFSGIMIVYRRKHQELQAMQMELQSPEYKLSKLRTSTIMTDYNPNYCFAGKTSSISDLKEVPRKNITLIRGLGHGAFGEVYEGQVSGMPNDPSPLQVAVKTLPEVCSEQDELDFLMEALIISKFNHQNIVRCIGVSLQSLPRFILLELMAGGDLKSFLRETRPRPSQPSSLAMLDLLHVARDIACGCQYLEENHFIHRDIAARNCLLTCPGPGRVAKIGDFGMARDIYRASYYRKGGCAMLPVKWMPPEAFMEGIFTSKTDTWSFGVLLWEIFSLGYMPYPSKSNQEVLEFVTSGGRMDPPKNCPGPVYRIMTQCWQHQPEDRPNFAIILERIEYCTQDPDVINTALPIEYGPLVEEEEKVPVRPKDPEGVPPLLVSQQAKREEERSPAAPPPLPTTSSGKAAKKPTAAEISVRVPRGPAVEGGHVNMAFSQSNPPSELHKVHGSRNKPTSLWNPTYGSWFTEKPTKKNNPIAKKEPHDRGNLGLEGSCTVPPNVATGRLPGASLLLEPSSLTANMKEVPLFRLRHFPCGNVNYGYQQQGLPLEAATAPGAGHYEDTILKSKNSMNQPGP
# In short: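 Final compound range 0.00017 to 10 μM (twelve 1:3 dilutions). Kinase reaction with ATP and biotinylated synthetic peptide runs 120 min at 20° C, stopped with EDTA; phosphotyrosine detected by HTRF after 60 min. Inhibition referenced to DMSO (1%) and EDTA (0.1 M) controls, curve-fitted.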
SMILES,IC50 [1] [nM],IC50 [2] [nM],IC50 [3] [nM],IC50 [4] [nM],IC50 [5] [nM],IC50 [6] [nM],IC50 [7]
"COc1cc2c(cc1Nc1nc(Nc3cccc(F)c3C(N)=O)c3c(F)c[nH]c3n1)N(C(=O)CN(C)C)CC2 [Example 252, 2-[(2-{[1-(N,N-dimethylglycyl)-5-(methyloxy)-2,3-dihydro-1H-indol-6-yl]amino}-5-fluoro-1H-pyrrolo[2,3-d]pyrimidin-4-yl)amino]-6-fluorobenzamide]",< 250,< 100,0.251 to 1,< 250,0.251 to 1,< 100,
"CNC(=O)c1c(F)cccc1Nc1nc(Nc2cc3c(cc2OC)CCCN3C(C)=O)nc2[nH]ccc12 [Example 215, 2-[(2-{[1-acetyl-6-(methyloxy)-1,2,3,4-tetrahydro-7-quinolinyl]amino}-1H-pyrrolo[2,3-d]pyrimidin-4-yl)amino]-6-fluoro-N-methylbenzamide]",250 to 1000,> 500,5.01 to 158,> 1000,5.01 to 200,> 500,
"CCCN1CCC(c2ccc(Nc3nc(Nc4cccc(F)c4C(N)=O)c4cc[nH]c4n3)c(OC)c2)CC1 [Example 42, 2-fluoro-6-[(2-{[2-(methyloxy)-4-(1-propyl-4-piperidinyl)phenyl]amino}-1H-pyrrolo[2,3-d]pyrimidin-4-yl)amino]benzamide]",< 250,100 to 500,0.251 to 1,< 250,0.251 to 1,100 to 500,
"COc1c(Nc2nc(Nc3cccc(F)c3C(N)=O)c3cc[nH]c3n2)ccc(N2CCN(C(C)C)CC2)c1C [Example 50, 2-fluoro-6-[(2-{[3-methyl-4-[4-(1-methylethyl)-1-piperazinyl]-2-(methyloxy)phenyl]amino}-1 H-pyrrolo[2,3-d]pyrimidin-4-yl)amino]benzamide]",250 to 1000,> 500,,> 1000,,> 500,1.26 to 3.98 nM
"CNC(=O)c1c(F)cccc1Nc1nc(Nc2cc3c(cc2OC)CCN3C(=O)[C@H](C)N(C)C)nc2[nH]ccc12 [Example 194, 2-[(2-{[1-(N,N-dimethyl-L-alanyl)-5-(methyloxy)-2,3-dihydro-1H-indol-6-yl]amino}-1H-pyrrolo[2,3-d]pyrimidin-4-yl)amino]-6-fluoro-N-methylbenzamide]",< 250,,1.26 to 3.98,< 250,1.26 to 3.98,,0.251 to 1 nM
"CNC(=O)c1c(F)cc(Cl)cc1Nc1nc(Nc2cc3c(cc2OC)CCN3C(=O)CN2CCCC2)nc2[nH]ccc12 [Example 176, 4-chloro-2-fluoro-N-methyl-6-[(2-{[5-(methyloxy)-1-(1-pyrrolidinylacetyl)-2,3-dihydro-1H-indol-6-yl]amino}-1H-pyrrolo[2,3-d]pyrimidin-4-yl)amino]benzamide]",250 to 1000,100 to 500,0.251 to 1,250 to 1000,0.251 to 1,100 to 500,
"COc1cc2c(cc1Nc1nc(Nc3cc(Cl)cc(F)c3C(N)=O)c3cc[nH]c3n1)N(C(=O)CN1CCCC1)CCC2 [Example 173, 4-chloro-2-fluoro-6-[(2-{[6-(methyloxy)-1-(1-pyrrolidinylacetyl)-1,2,3,4-tetrahydro-7-quinolinyl]amino}-1H-pyrrolo[2,3-d]pyrimidin-4-yl)amino]benzamide]",< 250,100 to 500,,250 to 1000,,< 100,0.251 to 1 nM
"COc1cc2c(cc1Nc1nc(Nc3cccc(F)c3C(N)=O)c3cc[nH]c3n1)N(C(=O)CN1CCCC1)CCC2(C)C [Example 223, 2-[(2-{[4,4-dimethyl-6-(methyloxy)-1-(1-pyrrolidinylacetyl)-1,2,3,4-tetrahydro-7-quinolinyl]amino}-1H-pyrrolo[2,3-d]pyrimidin-4-yl)amino]-6-fluorobenzamide]",< 250,,0.251 to 1,< 250,0.251 to 1,,0.251 to 1 nM
"CNC(=O)c1c(F)cccc1Nc1nc(Nc2cc3c(cc2OC)C(C)(C)CCN3C(=O)CN2CCCC2)nc2[nH]ccc12 [Example 224, 2-[(2-{[4,4-dimethyl-6-(methyloxy)-1-(1-pyrrolidinylacetyl)-1,2,3,4-tetrahydro-7-quinolinyl]amino}-1H-pyrrolo[2,3-d]pyrimidin-4-yl)amino]-6-fluoro-N-methylbenzamide]",< 250,,0.251 to 1,250 to 1000,0.251 to 1,,1.26 to 3.98 nM and 0.251 to 1 nM
"CNC(=O)c1c(Nc2nc(Nc3cc4c(cc3OC)CCN4C(=O)CN(C)C)nc3[nH]ccc23)ccc(F)c1F [Example 160, 6-[(2-{[1-(N,N-dimethylglycyl)-5-(methyloxy)-2,3-dihydro-1H-indol-6-yl]amino}-1H-pyrrolo[2,3-d]pyrimidin-4-yl)amino]-2,3-difluoro-N-methylbenzamide]",< 250,,1.26 to 3.98,250 to 1000,1.26 to 3.98,,1.26 to 3.98 nM
"CNC(=O)c1c(F)cccc1Nc1nc(Nc2cc3c(cc2OC)CCN3C(=O)[C@@H](C)N(C)C)nc2[nH]ccc12 [Example 195, 2-[(2-{[1-(N,N-dimethyl-D-alanyl)-5-(methyloxy)-2,3-dihydro-1H-indol-6-yl]amino}-1H-pyrrolo[2,3-d]pyrimidin-4-yl)amino]-6-fluoro-N-methylbenzamide]",250 to 1000,,1.26 to 3.98,250 to 1000,1.26 to 3.98,,1.26 to 3.98 nM
"COc1cc2c(cc1Nc1nc(Nc3ccc(F)c(F)c3C(N)=O)c3cc[nH]c3n1)N(C(=O)CN(C)C)CC2 [Example 159, 6-[(2-{[1-(N,N-dimethylglycyl)-5-(methyloxy)-2,3-dihydro-1H-indol-6-yl]amino}-1H-pyrrolo[2,3-d]pyrimidin-4-yl)amino]-2,3-difluorobenzamide]",< 250,,1.26 to 3.98,< 250,1.26 to 3.98,,1.26 to 3.98 nM
"COc1cc2c(cc1Nc1nc(Nc3ccc(F)c(F)c3C(=O)NC(C)C)c3cc[nH]c3n1)N(C(=O)CN(C)C)CCC2 [Example 164, 6-[(2-{[1-(N,N-dimethylglycyl)-6-(methyloxy)-1,2,3,4-tetrahydro-7-quinolinyl]amino}-1H-pyrrolo[2,3-d]pyrimidin-4-yl)amino]-2,3-difluoro-N-(1-methylethyl)benzamide]",250 to 1000,,5.01 to 158,> 1000,5.01 to 200,,1.26 to 3.98 nM
"COc1cc2ccn(CC(=O)N(C)C)c2cc1Nc1nc(Nc2cccc(F)c2C(N)=O)c2cc[nH]c2n1 [Example 196, 2-[(2-{[1-[2-(dimethylamino)-2-oxoethyl]-5-(methyloxy)-1H-indol-6-yl]amino}-1H-pyrrolo[2,3-d]pyrimidin-4-yl)amino]-6-fluorobenzamide]",> 1000,> 500,,,5.01 to 200,> 500,5.01 to 200 nM
"COc1cc2c(cc1Nc1nc(Nc3cccc(F)c3C(N)=O)c3cc[nH]c3n1)N(C(=O)CN(C)C)CCC2(C)C [Example 225, 2-[(2-{[1-(N,N-dimethylglycyl)-4,4-dimethyl-6-(methyloxy)-1,2,3,4-tetrahydro-7-quinolinyl]amino}-1H-pyrrolo[2,3-d]pyrimidin-4-yl)amino]-6-fluorobenzamide]",< 250,,0.251 to 1,< 250,0.251 to 1,,0.251 to 1 nM
